Results on two molecules are retold here after patent US20110086103A1, “NOVEL MANDELATE SALT OF FESOTERODINE” (ACTAVIS GROUP PTC EHF, priority 2008, published 2011).

SMILES strings stand for the structures. Counter-ions that a name gives are not always drawn.

A short description of data set [1]: Stability of solid state form (polymorphic stability by P-XRD on storage). The note with it: stored 3 months in self-sealing LDPE bag, normal atmospheric conditions, room temperature. The format is physicochemical. As to the method:
The X-Ray powder diffraction was measured by an X-ray powder Diffractometer equipped with CuKα-radiations (40 kV, 40 mA) in wide-angle X-ray Diffractometer of BRUKER axs, D8 ADVANCE. The sample was analyzed using the following instrument parameters: measuring range 3-45° 2-theta; step width=0.01579°; and measuring time per step=0.11 sec. Fesoterodine mandelate was prepared according to the process exemplified in Example 1 and was packed in a self-sealing low-density polyethylene (LDPE) bag. The material was stored for 3 months under normal atmospheric conditions at room temperature and checked for polymorphic stability.

Data set [2] in a line: Moisture absorption during filtration of the salt. The class given is physicochemical.

For the molecule `CC(C)C(=O)Oc1ccc(CO)cc1[C@H](CCN(C(C)C)C(C)C)c1ccccc1.O=C(O)C(O)c1ccccc1` [Fesoterodine mandelate, mandelate salt of 2-[(1R)-3-[bis(1-methylethyl)amino]-1-phenylpropyl]-4-hydroxymethylphenyl isobutyrate], the “polymorphic stability (maintenance of the original P-XRD pattern)” value in data set [1] is listed as “retain its polymorphic form”. In addition, the moisture absorption entry in data set [2] was “does not absorb moisture”. On to `CC(C)C(=O)Oc1ccc(CO)cc1[C@H](CCN(C(C)C)C(C)C)c1ccccc1` [fumarate salt, fesoterodine fumarate, reference compound], for which the moisture absorption result in data set [2] was “absorbs moisture”.
